# Reference: ChEMBL document CHEMBL1201862, “PubChem BioAssay data set” (2004)
# Activity calls are given as the source filed them.
# What was measured:
# [1] = molecular target: Eukaryotic translation initiation factor 4E (Mus musculus, UniProt P63073); test: eIF4E–eIF4G protein interaction inhibitors, dose response, biochemical, TR-FRET (AID 855); assay type: functional;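 further: potency for disrupting eIF4E binding to eIF4GI seen as loss of FRET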
# [2] = molecular target: T1, Long-chain-fatty-acid--AMP ligase FadD28 (Mycobacterium tuberculosis, UniProt P9WQ59); test: Fluorescence polarization aasay to screen for inhibitors that compete for the binding of FadD28 to a bisubstrate Measured in Biochemical System Using Plate Reader - 2147-01_Inhibitor_Dose_CherryPick_Activity.; assay type: functional, Mycobacterium tuberculosis H37Rv
# T1 sequence (P9WQ59 whole entry): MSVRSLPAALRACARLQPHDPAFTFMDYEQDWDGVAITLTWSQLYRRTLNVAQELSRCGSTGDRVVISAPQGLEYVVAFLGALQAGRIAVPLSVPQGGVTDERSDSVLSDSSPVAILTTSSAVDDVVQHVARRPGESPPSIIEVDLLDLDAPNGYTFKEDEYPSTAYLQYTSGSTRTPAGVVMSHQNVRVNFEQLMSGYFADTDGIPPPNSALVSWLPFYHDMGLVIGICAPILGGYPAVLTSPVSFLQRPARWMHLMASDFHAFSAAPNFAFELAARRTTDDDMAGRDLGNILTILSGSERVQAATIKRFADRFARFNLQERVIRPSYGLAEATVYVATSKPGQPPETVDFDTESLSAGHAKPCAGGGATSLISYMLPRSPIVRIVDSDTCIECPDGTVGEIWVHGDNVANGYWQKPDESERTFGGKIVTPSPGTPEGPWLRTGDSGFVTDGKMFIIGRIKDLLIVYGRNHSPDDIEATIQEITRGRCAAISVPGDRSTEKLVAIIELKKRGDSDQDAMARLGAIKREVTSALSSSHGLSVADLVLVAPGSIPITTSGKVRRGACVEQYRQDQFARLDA
# Cytochrome P450 3A4 = Cytochrome P450 3A4 (Homo sapiens, UniProt P08684); details: Potency;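 further: confirmatory qHTS run detecting inhibitors and substrates of CYP3A4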
# [3] = molecular target: T2, Corticotropin-releasing factor receptor 2/Corticotropin-releasing factor-binding protein (Homo sapiens, UniProt P24387+Q13324); test: activators of CRF receptor 2 with binding protein – uHTS hits, confirmation (AID 602473); assay type: functional; details: read-out: EC50_Mean
# T2 sequence (Q13324 whole entry): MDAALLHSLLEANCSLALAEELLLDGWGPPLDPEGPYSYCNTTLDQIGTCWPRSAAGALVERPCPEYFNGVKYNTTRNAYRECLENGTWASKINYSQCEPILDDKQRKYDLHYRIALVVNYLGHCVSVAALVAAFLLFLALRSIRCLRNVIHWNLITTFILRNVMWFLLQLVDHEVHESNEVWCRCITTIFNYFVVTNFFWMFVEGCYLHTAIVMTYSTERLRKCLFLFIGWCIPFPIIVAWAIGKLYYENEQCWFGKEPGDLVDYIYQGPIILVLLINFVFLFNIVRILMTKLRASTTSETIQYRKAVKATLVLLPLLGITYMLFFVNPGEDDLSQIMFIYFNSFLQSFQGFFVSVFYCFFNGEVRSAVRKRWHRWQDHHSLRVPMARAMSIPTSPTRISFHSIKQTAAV
# T2 sequence (P24387 whole entry): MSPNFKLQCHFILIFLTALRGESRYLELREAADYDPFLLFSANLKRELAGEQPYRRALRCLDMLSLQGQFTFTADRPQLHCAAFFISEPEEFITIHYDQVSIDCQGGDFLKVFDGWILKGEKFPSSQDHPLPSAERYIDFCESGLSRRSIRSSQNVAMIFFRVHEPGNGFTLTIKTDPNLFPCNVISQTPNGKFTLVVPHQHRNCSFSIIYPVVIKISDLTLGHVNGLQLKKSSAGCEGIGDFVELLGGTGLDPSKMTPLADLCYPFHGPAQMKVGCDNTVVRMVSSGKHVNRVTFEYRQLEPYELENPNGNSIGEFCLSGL
# [4] = molecular target: T3, Endoribonuclease toxin MazF (Escherichia coli K-12, UniProt P0AE70); test: fluorescent RNA oligo signal without MazF, dose response, counter-screen for MazEF activator project, biochemical, fluorescence, single-stranded RNase substrate (AID 588502); assay type: functional
# T3 sequence (P0AE70 whole entry): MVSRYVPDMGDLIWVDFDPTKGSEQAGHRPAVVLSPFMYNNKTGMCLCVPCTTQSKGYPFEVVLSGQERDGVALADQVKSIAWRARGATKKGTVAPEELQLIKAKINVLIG
# [5] = molecular target: T3, Endoribonuclease toxin MazF; test: MazF toxin RNase activators, dose response, biochemical, fluorescence, single-stranded RNA substrate, uHTS hits (AID 588481); assay type: functional
# [6] = Luminescence Cell-Based Dose Retest to Confirm Inhibitors of Cancer Stem Cells. [Related pubchem assays (depositor defined):AID2717, AID2721]; assay type: functional; details: Homo sapiens
# Genome polyprotein = Genome polyprotein (dengue virus type 2, UniProt P29990); test: Dengue-2 NS5 methyltransferase inhibitors, primary screen, biochemical, confirmation dose response (AID 588689); assay type: functional
# Streptococcus = test: Group A Streptococcus viability loss, dose response, counter-screen for streptokinase expression inhibitor project, luminescence, BacTiterGlo (AID 1915); assay type: functional, organism-based;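 further: potency for reduction of bacterial viability or growth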
# [7] = system: Streptococcus sp. 'group A'; test: growth inhibition of control SK(-) GAS strain, dose response, counter-screen for streptokinase expression inhibitor project, luminescence, kanamycin, BacTiterGlo, confirmation (AID 1900); assay type: functional, organism-based
# Streptokinase A = molecular target: T4, Streptokinase A (Streptococcus pyogenes serotype M1, UniProt P10520); test: S. pyogenes streptokinase expression inhibitors, potency, dose response, plasminogen activation absorbance, OD405 (AID 1914); assay type: functional, Streptococcus pyogenes M1 GAS;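 further: secreted streptokinase activity via plasminogen activation per viability signal from cell pellet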
# T4 sequence (P10520 whole entry): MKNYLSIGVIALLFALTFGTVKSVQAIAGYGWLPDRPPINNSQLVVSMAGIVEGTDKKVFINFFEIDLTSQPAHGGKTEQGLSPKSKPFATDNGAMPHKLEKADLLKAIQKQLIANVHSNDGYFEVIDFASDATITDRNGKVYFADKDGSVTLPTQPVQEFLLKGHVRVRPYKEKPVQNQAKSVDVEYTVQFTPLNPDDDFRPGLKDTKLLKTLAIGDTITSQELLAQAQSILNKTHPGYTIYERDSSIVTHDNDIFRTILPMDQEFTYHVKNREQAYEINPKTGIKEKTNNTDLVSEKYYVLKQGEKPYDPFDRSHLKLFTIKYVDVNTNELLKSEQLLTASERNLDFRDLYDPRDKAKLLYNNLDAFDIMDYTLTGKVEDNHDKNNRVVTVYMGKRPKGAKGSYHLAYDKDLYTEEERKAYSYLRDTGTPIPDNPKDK
# [8] = molecular target: T5, Calpain-2 catalytic subunit (Sus scrofa, UniProt P43367); test: pig calpain II inhibitor potency, dose response, biochemical, fluorogenic peptide substrate (AID 1420); assay type: functional
# T5 sequence (P43367 whole entry): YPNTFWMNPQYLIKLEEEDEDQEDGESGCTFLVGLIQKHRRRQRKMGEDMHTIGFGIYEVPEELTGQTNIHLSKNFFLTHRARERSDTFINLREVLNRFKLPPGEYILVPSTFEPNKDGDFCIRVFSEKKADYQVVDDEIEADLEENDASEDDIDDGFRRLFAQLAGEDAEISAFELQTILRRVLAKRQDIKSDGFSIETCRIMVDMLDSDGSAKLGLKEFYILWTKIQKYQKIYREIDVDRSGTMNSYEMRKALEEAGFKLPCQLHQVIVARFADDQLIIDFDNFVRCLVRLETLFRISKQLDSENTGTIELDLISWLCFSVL
# [9] = HEp-2 cell cytotoxicity, dose response, cytotoxicity control for RSV inhibitor project, HTS (AID 2410); assay type: functional; details: human respiratory syncytial virus
# [10] = molecular target: FAD-linked sulfhydryl oxidase ALR (Homo sapiens, UniProt P55789); test: inhibitors of human ALR sulfhydryl oxidase, dose response, biochemical, H2O2 detection, luminescence, cherry-pick (AID 493248)
# [11] = microbe, parasite or virus in culture; assay type: functional; details: Mycobacterium tuberculosis
# Cytochrome P450 2C9 = Cytochrome P450 2C9 (Homo sapiens, UniProt P11712)
# Sequence of Cytochrome P450 2C9 (P11712 whole entry): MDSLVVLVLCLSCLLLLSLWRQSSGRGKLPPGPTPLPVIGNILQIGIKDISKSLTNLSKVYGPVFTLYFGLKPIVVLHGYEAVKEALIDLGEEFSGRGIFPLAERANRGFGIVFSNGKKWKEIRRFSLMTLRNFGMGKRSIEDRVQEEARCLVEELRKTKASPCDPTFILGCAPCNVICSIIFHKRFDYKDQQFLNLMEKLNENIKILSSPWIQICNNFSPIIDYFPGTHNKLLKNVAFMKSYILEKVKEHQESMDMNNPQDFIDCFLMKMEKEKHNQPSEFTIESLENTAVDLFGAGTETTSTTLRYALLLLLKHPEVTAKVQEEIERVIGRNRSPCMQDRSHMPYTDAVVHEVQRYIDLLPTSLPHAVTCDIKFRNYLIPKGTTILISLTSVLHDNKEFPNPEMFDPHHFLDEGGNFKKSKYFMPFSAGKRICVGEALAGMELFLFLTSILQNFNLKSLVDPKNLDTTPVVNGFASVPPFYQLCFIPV
# Sequence of Cytochrome P450 3A4 (P08684 whole entry): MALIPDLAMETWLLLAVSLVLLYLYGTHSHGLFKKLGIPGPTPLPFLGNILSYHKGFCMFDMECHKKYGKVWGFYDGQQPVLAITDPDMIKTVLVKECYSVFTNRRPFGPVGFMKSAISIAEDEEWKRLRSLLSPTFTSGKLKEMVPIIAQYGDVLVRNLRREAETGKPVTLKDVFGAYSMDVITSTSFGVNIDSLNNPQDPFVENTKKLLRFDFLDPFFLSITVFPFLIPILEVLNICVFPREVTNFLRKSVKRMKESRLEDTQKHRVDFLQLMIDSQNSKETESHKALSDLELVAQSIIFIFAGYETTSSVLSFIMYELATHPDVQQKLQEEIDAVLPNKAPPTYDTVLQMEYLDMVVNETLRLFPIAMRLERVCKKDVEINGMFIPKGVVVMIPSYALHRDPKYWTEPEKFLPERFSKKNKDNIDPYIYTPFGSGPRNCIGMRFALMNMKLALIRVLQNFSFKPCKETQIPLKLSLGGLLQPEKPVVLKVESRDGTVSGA
# Sequence of Eukaryotic translation initiation factor 4E (P63073 whole entry): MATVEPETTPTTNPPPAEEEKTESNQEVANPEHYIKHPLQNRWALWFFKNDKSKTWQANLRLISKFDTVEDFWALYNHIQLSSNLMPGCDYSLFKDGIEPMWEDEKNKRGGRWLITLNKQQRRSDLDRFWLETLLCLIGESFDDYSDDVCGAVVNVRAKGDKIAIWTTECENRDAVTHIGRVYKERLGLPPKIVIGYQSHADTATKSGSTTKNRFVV
# Sequence of Genome polyprotein (P29990 2492-3391 limits assumed): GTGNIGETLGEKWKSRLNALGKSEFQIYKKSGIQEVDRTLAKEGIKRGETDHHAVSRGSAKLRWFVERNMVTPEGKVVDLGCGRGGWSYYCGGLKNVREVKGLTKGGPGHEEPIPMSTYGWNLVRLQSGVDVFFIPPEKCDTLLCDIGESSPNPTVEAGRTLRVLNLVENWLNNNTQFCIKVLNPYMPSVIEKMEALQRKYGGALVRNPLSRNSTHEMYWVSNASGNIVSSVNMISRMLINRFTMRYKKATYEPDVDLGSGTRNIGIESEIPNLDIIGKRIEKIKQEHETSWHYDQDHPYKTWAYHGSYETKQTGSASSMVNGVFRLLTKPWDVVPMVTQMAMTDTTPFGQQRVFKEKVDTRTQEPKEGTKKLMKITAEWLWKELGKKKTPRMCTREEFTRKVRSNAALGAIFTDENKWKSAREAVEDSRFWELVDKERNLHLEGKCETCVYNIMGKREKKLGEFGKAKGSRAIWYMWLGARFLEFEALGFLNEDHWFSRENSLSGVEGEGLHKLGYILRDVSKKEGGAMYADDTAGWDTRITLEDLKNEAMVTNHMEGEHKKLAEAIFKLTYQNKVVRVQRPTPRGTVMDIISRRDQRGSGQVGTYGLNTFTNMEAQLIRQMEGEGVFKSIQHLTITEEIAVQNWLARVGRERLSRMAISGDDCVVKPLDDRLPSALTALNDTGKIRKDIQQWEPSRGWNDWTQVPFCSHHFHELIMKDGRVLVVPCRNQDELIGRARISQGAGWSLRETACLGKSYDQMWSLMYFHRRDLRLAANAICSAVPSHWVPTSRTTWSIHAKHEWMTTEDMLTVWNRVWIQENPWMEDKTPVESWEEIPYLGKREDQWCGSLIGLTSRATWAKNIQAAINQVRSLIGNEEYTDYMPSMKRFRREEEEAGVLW
# Sequence of FAD-linked sulfhydryl oxidase ALR (P55789 whole entry): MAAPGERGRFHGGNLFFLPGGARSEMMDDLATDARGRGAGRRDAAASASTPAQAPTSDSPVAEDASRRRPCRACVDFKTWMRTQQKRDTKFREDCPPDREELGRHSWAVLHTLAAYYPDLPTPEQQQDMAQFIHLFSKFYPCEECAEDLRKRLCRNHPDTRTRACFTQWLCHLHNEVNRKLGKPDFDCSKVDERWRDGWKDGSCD
compound,measurement,setting,value
O=C(CNC(=O)c1ccco1)N=Nc1c(O)[nH]c2ccc([N+](=O)[O-])cc12,IC50,cells,20.6 µM (active)
CCc1ccc(C(=O)NNC(=O)OC)cc1,IC50,[1],50 µM (inactive)
COc1cc(/C=C2\SC(=S)N(CC(=O)Nc3cccnc3)C2=O)cc(OC)c1OC,AC50,[2],72.2 µM (active)
O=C1c2cccnc2C(Nc2ccccc2)N1Cc1ccco1 (stereo unspecified),IC50,cells,15.1 µM (active)
NS(=O)(=O)c1ccc(NC(=O)COc2ccc(C(=O)c3ccc(F)cc3)cc2)cc1,AC50,[2],> 100 µM (inactive)
COC(=O)C1(C)C=CC2(CCCCC2)N1C(=O)c1ccccc1 (stereo unspecified),AC50,Cytochrome P450 3A4,20 µM (inconclusive)
CCOc1ccc(N2C(=O)NC(=O)/C(=C\c3c[nH]c4ccccc34)C2=O)cc1,EC50,[3],15.4 µM (active)
same,EC50,[4],16.3 µM (active)
same,EC50,[5],> 99 µM (inactive)
Cc1ccc(S(=O)(=O)NCC(=O)Nc2ccc3c(c2)OCCO3)cc1,AC50,[2],> 100 µM (inactive)
Cc1ccc(F)c(NC(=O)/C(C#N)=C(\O)c2ccc(C(C)(C)C)cc2)c1,AC50,[6],1.96 µM (active)
same,IC50,Genome polyprotein,32.6 µM (active)
same,AC50,[2],> 100 µM (inactive)
same,EC50,Streptococcus,> 150 µM (not active)
same,EC50,[7],16.7 µM (active)
same,EC50,Streptokinase A,> 150 µM (not active)
Cc1ccccc1NC(=O)COC(=O)CCc1ccccc1,IC50,[8],20.8 µM (not active)
O=S(=O)(c1ccccc1Cl)N1CCCC(c2nc(O)c3nnn(Cc4ccc5c(c4)OCCO5)c3n2)C1 (stereo unspecified),CC50,[9],16.6 µM (active)
same,IC50,cells,10.1 µM (active)
CC1=C(C(=O)OCC(C)C)C23C(=O)c4ccccc4C2(O1)OC(N)=C3C#N (stereo unspecified),IC50,[8],> 50 µM (not active)
COc1cc(NC2c3ncccc3C(=O)N2Cc2ccco2)cc(OC)c1OC (stereo unspecified),IC50,cells,30.1 µM (active)
CN1c2ccccc2C(C)(C)C12CC(c1cccc(S(=O)(=O)N3CCCC3)c1)=NO2 (stereo unspecified),CC50,[9],17.7 µM (active)
same,IC50,cells,18.3 µM (active)
CC(C)CNS(=O)(=O)c1ccc(CCC(=O)Nc2cc(Cl)ccc2Oc2ccccc2)cc1,IC50,[8],5.08 µM (not active)
Cc1nn(Cc2cccc(C(=O)NC(C)c3ccc(C(C)(C)C)cc3)c2)c(C)c1[N+](=O)[O-] (stereo unspecified),IC50,[8],6.98 µM (not active)
COc1ccc(-c2csc(Nc3ccc(S(=O)(=O)Nc4cc(C)on4)cc3)n2)cc1,AC50,[10],12.9 µM (active)
same,AC50,[2],67.4 µM (active)
CC(=O)Nc1ccc(S(=O)(=O)Nc2cccc3[nH]ncc23)cc1,IC50,[8],> 50 µM (not active)
CN1C(=O)/C(=C/c2ccccc2Cl)Sc2ccc(C(=O)NCc3cccnc3)cc21,CC50,[11],> 40 µM (active)
same,EC50,Streptococcus,16.1 µM (active)
same,EC50,[7],4.4 µM (active)
same,EC50,Streptokinase A,> 150 µM (not active)
same,IC50,[8],5.27 µM (not active)
COC1(C#CC2C=CC(OC(C)=O)C(COC(C)=O)O2)CCCCC1 (stereo unspecified),AC50,Cytochrome P450 3A4,3.98 µM (inconclusive)
Cc1cccc(-n2c(=O)c3c4c(sc3n3c(=S)[nH]nc23)CCC4)c1,IC50,[1],50 µM (inactive)
COc1cccc(NC(=O)COc2ccc(N3CC(C(=O)NCC(C)C)CC3=O)cc2)c1 (stereo unspecified),IC50,[1],> 64 µM (inactive)
C/C(N)=C(/C#N)C(=O)COC(=O)CNS(=O)(=O)c1ccc2ccccc2c1,IC50,cells,11.8 µM (active)
CN(CCOc1ccc(C[C@H](Nc2ccccc2C(=O)c2ccccc2)C(=O)O)cc1)c1ccccn1,AC50,Cytochrome P450 3A4,3.16 µM (inconclusive)
same,AC50,Cytochrome P450 2C9,31.6 µM (inconclusive)
COc1cc(O)c2c(=O)c(O)c(-c3ccc(O)c(O)c3)oc2c1 [RHAMNETIN],AC50,Cytochrome P450 3A4,39.8 µM (inconclusive)
C=CCc1ccc2c(c1)OCO2 [SAFROLE],AC50,Cytochrome P450 3A4,3.16 µM (inconclusive)
